According to patent US9388147B2 (Receptos, Inc., priority 2009, dated 2016):
Structures can show the parent of a compound that is named as a salt.

Experiments:
S1P1 R120A/E121A = target: T1, S1P1 R120A/E121A (Homo sapiens, UniProt P21453, E121A/R120A); experiment: Phosphorylated-ERK1/2 In Cell Western, S1P1 R120A/E121A mutant in CHOK1 cells; assay type: cell-based
T1 construct: expressed in transfected cells; host or cells: CHOK1
Protocol: A. Quick-change mutagenesis with PfuTurbo DNA polymerase (Stratagene) was conducted using S1P1/pcDNA3.1 (Missouri S&T cDNA Resource Centre) as the template. Primers were as follows: […]
PCR conditions were 15 cycles with the following parameters: 95° C. 30 sec, 58° C. 30 sec, 68° C. for 60 sec. All constructs were sequence verified.
(§1) CHOK1 cells were transfected using Fugene (Roche). Stably expressing mixed pools were selected with 2 mg/ml G418. Expression of functional S1P1/EDG1 receptor was confirmed by cell surface FACS with a S1P1 antibody (R&D Systems, clone 218713). Stable pools were seeded at 40,000 cells/well in a clear bottom 96-well tray, and incubated at 37° C. in 5% CO2 for 18 hrs. Cells were serum-starved in FreeStyle 293 medium (Invitrogen) for 4-6 h, then incubated for 5 min with a dose response of compound, in duplicate. Cells were fixed with 4% paraformaldehyde for 20 min, permeabilized with 0.1% Triton X-100 in PBS (4×5 min washes) and blocked for 1 h in Odyssey Blocking Buffer (LI-COR). All incubations were at room temperature. Cells were incubated for 18 h at 4° C. in Rabbit anti-Phospho-ERK1/2 (Cell Signaling #4377) and Mouse anti-ERK1/2 (Cell Signaling #9107) both diluted 1:800 in Odyssey Blocking Buffer. Plates were washed with 0.1% Tween-20 in PBS and then incubated with Odyssey Blocking Buffer containing IRDye 680-labeled goat anti-rabbit antibody (#926-32221; diluted 1/500) and IRDye 800CW-labeled goat anti-mouse antibody (#926-32210; diluted 1/1000). Plates were washed with 0.1% Tween-20 in PBS, all liquid was removed from the wells and the plates were scanned using a LICOR Odyssey scanner. The phospho-ERK1/2 signal was normalized to the ERK1/2 signal. Data was analyzed by non-linear regression using GraphPad Prism to determine the EC50 of binding.

S1P1/EDG1 = S1P1/EDG1 (Homo sapiens, UniProt P21453); experiment: Phosphorylated-ERK1/2 In Cell Western, wild type S1P1 in CHOK1 cells; assay type: cell-based
Protocol: as §1, with “The phospho-ERK1/2 signal was normalized to the ERK1/2 signal.” left out

[1] = Determination of absolute oral bioavailability in rats; assay type: in vivo, Sprague-Dawley rat; conditions: non-fasted female Sprague-Dawley rats, oral solution 0.3 mg/kg (85), 2 mg/kg (49, 50), iv 0.3 mg/kg (49, 50), 0.8 mg/kg racemic 85/86
Protocol: All pharmacokinetic studies were conducted in non-fasted female Sprague-Dawely rats (Simonsen Laboratories or Harlan Laboratories). Rats were housed in an ALAAC accredited facility and the research was approved by the facilities Institutional Animal Care and Use Committee (IACUC). The animals were acclimated to the laboratory for at least 48 h prior to initiation of experiments.
Compounds were formulated in 5% DMSO/5% Tween20 and 90% purified water (intravenous infusion) or 5% DMSO/5% Tween20 and 90% 0.1N HCL (oral gavage). The concentration of the dosing solutions was verified by HPLC-UV. For intravenous dosing, compounds were administered by an infusion pump into the jugular vein over one minute to manually restrained animals (n=4 rats/compound). The intravenous doses were 0.8 for a 1:1 mixture (racemic) of 85 and 86, and 0.3 and 0.3 mg/kg for compounds 49 and 50, respectively. Oral dosing was by gavage using a standard stainless steel gavage needle (n=2-4 rats/compound). The oral solution doses were 0.3, 2 and 2 mg/kg for compounds 85, 49 and 50, respectively. For both routes of administration, blood was collected at eight time-points after dosing with the final sample drawn 24 h post dose. Aliquots of the blood samples were transferred to polypropylene 96-well plate and frozen at −20° C. until analysis. […]
Concentrations in the rat pharmacokinetic samples were determined using a standardized HPLC-LC/MS/MS method relative to the eight point standard curve. […] Collision energies used to generate daughter ions ranged between 29 and 39 V. Peak area ratios obtained from MRM of the mass transitions specific for each compound were used for quantification. The limit of quantification of the method was typically 5 nM. Data were collected and analyzed using Analyst software version 1.4.2.
Blood concentration versus time data were analyzed using non-compartmental methods (WinNonlin version 5.2; model 200 for oral dosing and model 202 for intravenous infusion). Absolute oral bioavailability (%) was calculated using the following expression: (Oral AUC×IV Dose)/(IV AUC×Oral Dose)×100. […]

TNBS induced colitis = experiment: TNBS Crohn's colitis model in rats; assay type: in vivo, Sprague-Dawley rat; conditions: 1 mg/kg oral daily for six days, 31% in the diseased rats
Protocol: Male Sprague-Dawley rats (180-200 g) were acclimatized for seven days and then assigned to 8 rats per group so that each group had approximately the same mean weight. Twenty-four hours prior to disease initiation, rats are deprived of food. Rats were anaesthetized and weighed, then 80 mg/kg TNBS solution (50% TNBS: 50% 200 proof ethanol) was instilled into colon via a 20 g feeding needle inserted into the anus. The rats were maintained in head down position until recovery from anesthesia. Daily oral dosing was initiated 2 h post TNBS-instillation for six days. Prednisolone served as a positive control and was administered orally daily at 10 mg/kg. Body weights were monitored daily and 24 h after the last dose, all groups are terminated. The colon was removed, flushed of fecal matter and examined for gross changes including strictures, adhesions and ulcers. The colon length, weight of the distal 2 cm, and wall thickness was recorded.

T1 sequence (P21453 whole entry R120A/E121A): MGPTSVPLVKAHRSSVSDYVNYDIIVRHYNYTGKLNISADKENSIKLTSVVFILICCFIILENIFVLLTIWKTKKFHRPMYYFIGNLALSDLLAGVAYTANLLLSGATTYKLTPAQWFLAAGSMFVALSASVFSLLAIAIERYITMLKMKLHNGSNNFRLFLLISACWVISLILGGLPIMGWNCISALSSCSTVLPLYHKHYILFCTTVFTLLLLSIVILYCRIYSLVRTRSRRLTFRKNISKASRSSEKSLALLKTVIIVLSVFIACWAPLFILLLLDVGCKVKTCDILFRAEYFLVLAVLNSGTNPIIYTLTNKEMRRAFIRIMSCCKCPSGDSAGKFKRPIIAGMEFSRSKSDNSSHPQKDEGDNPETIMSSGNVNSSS
S1P1/EDG1, sequence (P21453 whole entry): as the sequence (P21453 whole entry R120A/E121A) above, with A120R, A121E counted along it

CC(C)Oc1ccc(-c2nc(-c3cccc4c3CC[C@@H]4N)no2)cc1C#N [Compound 50, (S)-5-(3-(1-amino-2,3-dihydro-1H-inden-4-yl)-1,2,4-oxadiazol-5-yl)-2-isopropoxy-benzonitrile]
Effect of mutation on binding of compound (in words) (S1P1 R120A/E121A; S1P1 R120A/E121A): has no influence on the binding | Fold change in EC50 compared to wild type S1P1 (S1P1 R120A/E121A; S1P1 variant R120A/E121A, phospho-ERK1/2): 2 | Phosphorylation of ERK1/2 by S1P1 agonist (in words) (S1P1/EDG1): induce phosphorylation of ERK1/2 | Rat - Oral bioavailability Solution [1]: 91%

CC(C)Oc1ccc(-c2nc(-c3cccc4c3CC[C@H]4NCCO)no2)cc1C#N [Compound 85, (R)-5-(3-(1-(2-hydroxyethylamino)-2,3-dihydro-1H-inden-4-yl)-1,2,4-oxadiazol-5-yl)-2-isopropoxybenzonitrile]
TNBS induced colon shortening (TNBS induced colitis): 15% | Rat - Oral bioavailability Solution [1]: 69%

CC(C)Oc1ccc(-c2nc(-c3cccc4c3CC[C@H]4N)no2)cc1C#N [Compound 49, (R)-5-(3-(1-amino-2,3-dihydro-1H-inden-4-yl)-1,2,4-oxadiazol-5-yl)-2-isopropoxy-benzonitrile hydrochloride]
bioavailability ([1]; rat, whole blood): 93%
